In ChEMBL document CHEMBL1201862, “PubChem BioAssay data set” (2004):
Calls of active or inactive are those of the source.

Key:
[1] = biological target: Delta-type opioid receptor (Homo sapiens, UniProt P41143); assay: Counterscreen for agonists of heterodimerization of the mu 1 (OPRM1) and delta 1 (OPRD1) opioid receptors: Luminescence-based cell-based high throughput dose response assay to identify agonists of OPRD1 homodimerization. [Related pubchem assays (depositor defined):AID504326, AID504355, AID504692, AID504904, AID504905]; format: functional
Mu-type opioid receptor = Mu-type opioid receptor (Homo sapiens, UniProt P35372); assay: Counterscreen for agonists of heterodimerization of the mu 1 (OPRM1) and delta 1 (OPRD1) opioid receptors: Luminescence-based cell-based high throughput dose response assay to identify agonists of OPRM1 homodimerization.; format: functional;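 note: U2OS cells expressing OPRM1 and beta-arrestin as split beta-galactosidase partners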
[2] = biological target: 5-hydroxytryptamine receptor 5A (Homo sapiens, UniProt P47898); assay: Counterscreen for agonists of OPRM1-OPRD1 heterodimerization: luminescence-based cell-based high throughput dose response assay to identify agonists of 5-hydroxytryptamine (serotonin) 5A receptor (HTR5A). [Related pubchem assays (depositor defined):AID504326, AID504355, AID504692, AID504904, AID504905]; format: functional
[3] = NIH-3T3 fibroblast cytotoxicity, dose response, cytotoxicity control, cell-based, fluorescence, Alamar Blue, secondary assay (AID 2327); format: functional;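 note: NIH-3T3 mouse fibroblasts cultured with fluconazole at 8 µg/mL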
[4] = fluconazole-exposed Candida albicans growth modulators – fluorescence, retest, confirmation (AID 2467); format: functional, cell-based
[5] = biological target: T1, Serine/threonine-protein phosphatase (Candida dubliniensis (strain CD36 / CBS 7987 / NCPF 3949 / NRRLY-17841) (Yeast), UniProt B9W6M3); assay: blockers of CaCl2-induced CDRE-lacZ signaling – S. cerevisiae, luminescence, secondary, dose response (AID 2388); format: functional, cell-based;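 note: yeast reporter cells carrying a calcineurin-responsive lacZ construct stimulated with calcium chloride; luminescent beta-galactosidase reporter signal in whole cells rather than isolated phosphatase activity; potency for inhibition where a drop in reporter signal means calcineurin blockade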
T1 sequence (B9W6M3 whole entry): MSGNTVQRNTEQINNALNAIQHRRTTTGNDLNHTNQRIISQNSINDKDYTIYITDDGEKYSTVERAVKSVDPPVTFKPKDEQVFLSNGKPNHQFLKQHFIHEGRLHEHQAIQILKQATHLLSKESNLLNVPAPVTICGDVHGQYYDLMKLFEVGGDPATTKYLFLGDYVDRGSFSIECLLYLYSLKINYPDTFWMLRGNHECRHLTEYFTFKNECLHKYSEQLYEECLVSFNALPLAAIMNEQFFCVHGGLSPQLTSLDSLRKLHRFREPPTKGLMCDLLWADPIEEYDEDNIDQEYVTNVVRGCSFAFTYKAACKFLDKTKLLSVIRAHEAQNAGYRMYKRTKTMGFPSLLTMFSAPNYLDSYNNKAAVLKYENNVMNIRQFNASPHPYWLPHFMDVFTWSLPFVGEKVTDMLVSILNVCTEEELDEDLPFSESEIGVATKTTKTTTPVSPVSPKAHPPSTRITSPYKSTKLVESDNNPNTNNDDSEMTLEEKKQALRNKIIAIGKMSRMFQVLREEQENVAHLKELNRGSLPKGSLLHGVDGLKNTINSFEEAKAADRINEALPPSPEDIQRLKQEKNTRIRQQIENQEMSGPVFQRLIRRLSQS

[6] = biological target: ATP-dependent molecular chaperone HSP82 (Candida albicans (strain WO-1) (Yeast), UniProt C4YTQ8); assay: steroid-induced GRE reporter decrease in yeast – S. cerevisiae, luminescence, Hsp90 inhibitor project, dose response (AID 2400); format: functional, cell-based;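 note: beta-galactosidase luminescence from glucocorticoid response element reporter as proxy for Hsp90 function; inhibitor potency where signal loss means Hsp90 inhibition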
[7] = Luminescence Cell-Based Dose Retest to Confirm Inhibitors of Cancer Stem Cells. [Related pubchem assays (depositor defined):AID2717, AID2721]; format: functional; conditions: Homo sapiens
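Throughout, for AC50: cells exposed to compound for roughly 70 hours or longer before luminescence read.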

Chain of Delta-type opioid receptor (P41143 whole entry): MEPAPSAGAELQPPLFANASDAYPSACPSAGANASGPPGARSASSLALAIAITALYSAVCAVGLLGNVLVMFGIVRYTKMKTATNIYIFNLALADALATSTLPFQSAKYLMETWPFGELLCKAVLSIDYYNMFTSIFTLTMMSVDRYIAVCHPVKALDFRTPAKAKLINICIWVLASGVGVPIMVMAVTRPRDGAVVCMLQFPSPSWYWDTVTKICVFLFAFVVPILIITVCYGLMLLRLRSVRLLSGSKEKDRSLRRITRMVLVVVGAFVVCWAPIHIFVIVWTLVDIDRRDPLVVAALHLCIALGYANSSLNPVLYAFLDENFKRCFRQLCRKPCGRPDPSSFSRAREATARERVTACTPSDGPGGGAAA
Chain of Mu-type opioid receptor (P35372 whole entry): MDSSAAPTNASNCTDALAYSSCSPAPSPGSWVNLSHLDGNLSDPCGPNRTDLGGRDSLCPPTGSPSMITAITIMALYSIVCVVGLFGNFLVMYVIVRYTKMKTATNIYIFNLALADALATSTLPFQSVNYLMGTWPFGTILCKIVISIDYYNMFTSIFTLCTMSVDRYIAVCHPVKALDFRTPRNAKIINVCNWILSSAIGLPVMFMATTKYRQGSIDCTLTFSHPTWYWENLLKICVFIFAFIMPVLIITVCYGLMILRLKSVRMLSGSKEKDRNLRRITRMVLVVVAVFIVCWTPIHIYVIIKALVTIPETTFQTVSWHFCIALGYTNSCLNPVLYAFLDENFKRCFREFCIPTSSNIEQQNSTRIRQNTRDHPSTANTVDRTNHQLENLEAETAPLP
Chain of 5-hydroxytryptamine receptor 5A (P47898 whole entry): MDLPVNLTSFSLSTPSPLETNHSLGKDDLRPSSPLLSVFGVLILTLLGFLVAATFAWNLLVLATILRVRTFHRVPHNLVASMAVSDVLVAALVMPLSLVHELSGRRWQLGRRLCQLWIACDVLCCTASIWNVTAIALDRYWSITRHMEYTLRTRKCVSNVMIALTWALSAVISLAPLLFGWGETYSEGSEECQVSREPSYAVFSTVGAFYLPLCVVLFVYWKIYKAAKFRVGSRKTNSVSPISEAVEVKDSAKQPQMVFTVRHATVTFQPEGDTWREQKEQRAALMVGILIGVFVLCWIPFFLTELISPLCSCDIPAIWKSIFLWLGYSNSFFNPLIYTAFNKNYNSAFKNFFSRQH
Chain of ATP-dependent molecular chaperone HSP82 (C4YTQ8 whole entry): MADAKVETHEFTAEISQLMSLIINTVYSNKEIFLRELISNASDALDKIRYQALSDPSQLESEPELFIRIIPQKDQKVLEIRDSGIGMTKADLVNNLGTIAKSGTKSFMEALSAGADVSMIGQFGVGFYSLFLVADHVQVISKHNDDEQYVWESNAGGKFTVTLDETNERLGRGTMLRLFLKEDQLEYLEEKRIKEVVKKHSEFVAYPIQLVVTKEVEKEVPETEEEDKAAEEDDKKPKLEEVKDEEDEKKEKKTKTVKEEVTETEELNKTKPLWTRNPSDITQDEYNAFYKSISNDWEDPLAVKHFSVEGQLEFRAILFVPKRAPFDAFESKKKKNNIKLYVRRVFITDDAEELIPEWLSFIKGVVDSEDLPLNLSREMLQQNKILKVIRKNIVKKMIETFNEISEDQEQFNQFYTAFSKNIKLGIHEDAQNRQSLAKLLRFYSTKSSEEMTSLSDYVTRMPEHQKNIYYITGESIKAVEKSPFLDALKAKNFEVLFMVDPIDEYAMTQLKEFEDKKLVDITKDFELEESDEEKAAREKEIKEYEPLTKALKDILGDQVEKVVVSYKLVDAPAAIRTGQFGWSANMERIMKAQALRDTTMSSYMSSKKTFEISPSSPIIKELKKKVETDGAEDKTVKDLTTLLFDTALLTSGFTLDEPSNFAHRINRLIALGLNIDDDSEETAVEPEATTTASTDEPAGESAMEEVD

Compound	EC50 [1]	EC50 (Mu-type opioid receptor)	EC50 [2]	EC50 [3]	EC50 [4]	EC50 [5]	EC50 [6]	AC50 [7]
Cc1ccc2[nH]c(SC(C(=O)Nc3ccc(F)cc3)c3ccccc3)nc2c1 (stereo unspecified)	> 92.5 µM (inactive)	> 92.5 µM (inactive)	> 92.5 µM (inactive)	–	–	–	–	–
CCCCCCSc1nnc2nc(O)cc(N)n12	–	–	–	79.9 µM (active)	0.52 µM (active)	> 180 µM (inactive)	> 150 µM (inactive)	–
CC1(NC(=O)CC(c2ccccc2)(c2ccccc2)c2ccccc2)CCN(CCCc2ccccc2)C1=O (stereo unspecified)	> 92.5 µM (inactive)	> 92.5 µM (inactive)	> 92.5 µM (inactive)	–	–	–	–	5.42 µM (active)
